# Measured values as given in patent US20050058636A1, “Medicament against thrombotic diseases” (priority 2002, published 2005).
# Legend:
# [1] = target: T1, binding of PAI-1 to vitronectin in PAI-1-depleted extracellular matrix of endothelial cells (Homo sapiens, UniProt P04004); test: Binding of PAI-1 to endothelial cell matrix; details: 2 μg/ml PAI-1; competitors each 500 nM; 10 μM ZnCl2 (FIG. 1)
# T1 construct: The extracellular matrix of human umbilical vein endothelial cells was prepared according to standard procedures; endogenous in cells; host or cells: extracellular matrix of human umbilical vein endothelial cells, glycine-treated
# T1 sequence (P04004 20-478): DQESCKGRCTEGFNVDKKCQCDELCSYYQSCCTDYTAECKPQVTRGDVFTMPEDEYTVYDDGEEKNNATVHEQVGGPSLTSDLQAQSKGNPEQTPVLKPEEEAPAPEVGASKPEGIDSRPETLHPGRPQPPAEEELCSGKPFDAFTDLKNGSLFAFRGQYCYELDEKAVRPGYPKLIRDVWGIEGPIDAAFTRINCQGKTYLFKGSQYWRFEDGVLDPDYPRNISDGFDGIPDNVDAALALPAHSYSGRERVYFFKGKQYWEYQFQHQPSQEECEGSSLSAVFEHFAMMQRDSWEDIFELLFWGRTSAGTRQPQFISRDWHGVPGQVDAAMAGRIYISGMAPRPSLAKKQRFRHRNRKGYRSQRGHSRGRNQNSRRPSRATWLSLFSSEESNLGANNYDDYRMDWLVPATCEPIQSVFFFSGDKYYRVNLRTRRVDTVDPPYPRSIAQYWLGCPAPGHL
# Experimental: The extracellular matrix of human umbilical vein endothelial cells was prepared according to standard procedures. PAI-1-depleted extracellular matrix was obtained by subsequent incubation with glycine (0.1 M, pH 2.3) for 2 h at 25° C. Wells were washed and blocked with phosphate buffered saline containing 3% (wt/vol) bovine serum albumin before proceeding with binding assays. Binding of PAI-1 (2 μg/ml) to the extracellular matrix was performed in a final volume of 50 μl Tris-buffered saline containing 0.1% Tween-20, 0.3% (wt/vol) bovine serum albumin for 2 h at 22° C. in the absence or presence of […] and different kininogen forms. Following the incubation period and a washing step, bound PAI-1 was quantitated by anti-human PAI-1 monoclonal antibody 12A4, followed by addition of 1:1000 diluted peroxidase-conjugated goat anti-mouse immunoglobulins. The conversion of the substrate 2,2,-azino-di(3-ethyl) benz-thiazoline sulphate was monitored at 405 nm in a Thermomax microtiter plate reader. […]
# FIG. 1 The binding of 2 μg/ml PAI-1 to PAI-1-depleted (2 h glycine preincubation) extracellular matrix of cultured endothelial cells was tested in the absence (−)or presence of HK, HKa, GST-domain 5 (D5), the peptides HK483 and HK486 (each 500 nM) in a buffer containing 10 μM ZnCl2. Specific binding of PAI-1 is presented as absorbance at 405 nm.
# platelet-rich plasma = test: Aggregation of platelet-rich plasma; assay type: cell-based; details: Adenosin-diphosphate (5 μM)-induced; competitors each 1000 nM (FIG. 5)
# Experimental: Platelet-rich plasma from fresh whole blood in sodium citrate was prepared by centrifugation of anticoagulated whole blood at 150 g for 20 min. After incubation of 0.45 ml of platelet rich plasma with different kininogen forms as indicated in the figure legends, and addition of 5 μl of […] at a final concentration of 5 μM, platelet aggregation was induced. Aggregation was quantitated by following the change in light transmission in a standardized aggregometer.
# FIG. 5 Adenosin-diphosphate (5 μM)-induced aggregation of platelet-rich plasma was performed in the absence (−) or presence of GST-domain 5 (D5), or the peptides HK483 and HK486 (each 1000 nM). Platelet aggregation is presented as % of control.
# platelets = test: Platelet adhesion onto vitronectin-coated plates; assay type: cell-based; details: competitors each 250 nM (FIG. 4)
# Experimental: Multiwell plates were coated with 5 μg/ml multimeric vitronectin (dissolved in bicarbonate buffer, pH 9.6) and blocked with 3% (wt/vol) bovine serum albumin for 16 h at 4° C. Platelets stained with calcein acetoxymethyl ester (calcein-AM, 2.5 μM) (15 min at 37° C. in the dark) at a density of 5×10^6 cells suspended in 50 μl HEPES-Tyrode buffer containing 4 mM MgCl2 were added together with the respective competitors and incubated for 30 min at 37° C. After three washes with phosphate buffered saline, bound platelets were lysed with 100 μl of lysis buffer (150 mM NaCl, 10 mM Tris-CH1, pH 7.5, 5 mM EDTA, 1% (wt/vol) NP-40, 1 mM phenyl-methylsulfonyl fluoride, 20 μg/ml soybean trypsin inhibitor) and quantified in a fluorescent plate reader (excitation filter 492 nm, emission filter 535 nm).
# FIG. 4. The adhesion of platelets to vitronectin in the absence (−) or presence of HK, HKa, GST-domain 5(D5), or the peptides HK483 and HK486 (each 250 nM) was carried out. Cell adhesion is presented as % of control.
# [2] = target: T2, platelet αIIbβ3-integrin with vitronectin (Homo sapiens, UniProt P04004); test: Binding of vitronectin to αIIbβ3-integrin; details: vitronectin 2 μg/ml, immobilized αIIbβ3-integrin 5 μg/ml, 10 μM ZnCl2 (FIG. 3)
# T2 sequence (P04004 20-478): T1 sequence (P04004 20-478)
# Experimental: Microtiter plates were coated with 5 μg/ml αIIbβ3-integrin in Tris-buffered saline, pH 7.4, containing 1 mM CaCl2, 1 mM MgCl2 overnight at 4° C. and then blocked with 3% (w/v) bovine serum albumin. Binding of multimeric vitronectin (2 μg/ml) was performed in a final volume of 50 μl Tris-buffered saline containing 0.1% Tween-20, 0.3% (w/v) bovine serum albumin, 1 mM CaCl2 and 1 mM MgCl2 for 2 h at 22° C. in the absence or presence of 10 μM ZnCl2 and different kininogen forms. After the incubation period, monoclonal anti-vitronectin antibody VN7 at a concentration of 125 ng/ml was added, followed by addition of 1:1000 diluted peroxidase-conjugated goat anti-mouse immunoglobulins, respectively. Binding was quantitated as described above.
# FIG. 3 The binding of vitronectin (2 μg/ml) to immobilized αIIbβ3-integrin (5 μg/ml) in the absence or presence of increasing concentrations of PAI-1 (filled squares), HKa (filled circles) or GST-domain 5 (open circles) in a buffer containing 10 μM ZnCl2 was carried out. Specific binding is presented as absorbance at 405 nm.
# PAI-1 = test: Urokinase-mediated clot lysis in the presence of PAI-1; assay type: biochemical; details: not shown
substance,measurement,setting,value
"His-483-Gly-497 (HGHGKHKNKGKKNGK; UniProt P01042 501-515, looked up, fragment) [HK483, peptide derived from the carboxy-terminus of the domain 5 of HK]",binding of PAI-1 to vitronectin in PAI-1-depleted (glycine-treated) extracellular matrix of endothelial cells,[1],inhibited
same,aggregation of platelet-rich plasma,platelet-rich plasma,inhibit
same,αIIbβ3-integrin-mediated platelet adhesion to vitronectin,platelets,block
same,interaction of platelet αIIbβ3-integrin with vitronectin,[2],block
same,"urokinase-mediated clot lysis, which is inhibited in the presence of PAI-1",PAI-1,enhance
